Test results taken from patent US8802597B2, “Herbicidal pyrimidines” (E I du Pont de Nemours and Company, priority 2003, dated 2014).
Read-outs that look alike come from different tables or passages of the source.

How the values were obtained:
Type in all cases: in vivo
[1] = system: Surinam grass (Brachiaria decumbens); assay: Test B pre/postemergence; details: Urochloa decumbens; for pest or weed control at 125 g/ha: 125 g ai/ha; for pest or weed control at 500 g/ha: 500 g ai/ha
Method in brief: (§1)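 Pre: compound (non-phytotoxic solvent + surfactant) applied to freshly planted seeds. Post: same formulation sprayed on 2–18 cm plants, 1- to 4-leaf. Readout: visual control rating 0–100 vs controls, 13–15 d, greenhouse.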

[2] = system: barnyardgrass (Echinochloa crus-galli); assay: Test B pre/postemergence; details: Echinochloa crus-galli; for pest or weed control at 125 g/ha: 125 g ai/ha; for pest or weed control at 500 g/ha: 500 g ai/ha
Method in brief: as §1

[3] = system: cocklebur (Xanthium strumarium); assay: Test B pre/postemergence; details: Xanthium strumarium; for pest or weed control at 125 g/ha: 125 g ai/ha; for pest or weed control at 500 g/ha: 500 g ai/ha
Method in brief: as §1

[4] = system: corn (Zea mays); assay: Test B pre/postemergence; details: Zea mays
Method in brief: as §1

[5] = system: crabgrass (Digitaria sanguinalis); assay: Test B pre/postemergence; details: Digitaria sanguinalis; for pest or weed control at 125 g/ha: 125 g ai/ha; for pest or weed control at 500 g/ha: 500 g ai/ha
Method in brief: as §1

[6] = system: giant foxtail (Setaria faberii); assay: Test B pre/postemergence; details: Setaria faberi; for pest or weed control at 125 g/ha: 125 g ai/ha; for pest or weed control at 500 g/ha: 500 g ai/ha
Method in brief: as §1

[7] = system: lambsquarters (Chenopodium album); assay: Test B pre/postemergence; details: Chenopodium album; for pest or weed control at 125 g/ha: 125 g ai/ha; for pest or weed control at 500 g/ha: 500 g ai/ha
Method in brief: as §1

[8] = system: morningglory (Ipomoea coccinea); assay: Test B pre/postemergence; details: Ipomoea; for pest or weed control at 125 g/ha: 125 g ai/ha; for pest or weed control at 500 g/ha: 500 g ai/ha
Method in brief: as §1

[9] = system: pigweed (Amaranthus retroflexus); assay: Test B pre/postemergence; details: Amaranthus retroflexus; for pest or weed control at 125 g/ha: 125 g ai/ha; for pest or weed control at 500 g/ha: 500 g ai/ha
Method in brief: as §1

[10] = system: velvetleaf (Abutilon theophrasti); assay: Test B pre/postemergence; details: Abutilon theophrasti; for pest or weed control at 125 g/ha: 125 g ai/ha; for pest or weed control at 500 g/ha: 500 g ai/ha
Method in brief: as §1

[11] = system: wheat (Triticum aestivum); assay: Test B pre/postemergence; details: Triticum aestivum; for plant injury at 125 g/ha: 125 g ai/ha; for plant injury at 500 g/ha: 500 g ai/ha
Method in brief: as §1

[12] = system: blackgrass (Alopecurus myosuroides); assay: Test B postemergence; details: Alopecurus myosuroides, post-emergence
Method in brief: as §1

[13] = system: wild oat (Avena fatua); assay: Test B postemergence; details: Avena fatua, post-emergence
Method in brief: as §1

[14] = system: barnyardgrass (Echinochloa crus-galli); assay: Test B flooded paddy test; details: Echinochloa crus-galli, Flood, 1000 g ai/ha; scale 0 (no effect) to 100 (complete control); read-out: Plant response rating, Barnyardgrass
Method in brief: (§2)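 Visual injury scoring (0 = no effect, 100 = complete control) versus controls made 13 to 15 days after treatment in the greenhouse. Test species were grown in flooded paddy to the 2-leaf stage: rice, barnyardgrass, umbrella sedge, duck salad.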

[15] = system: duck salad (Heteranthera limosa); assay: Test B flooded paddy test; details: Heteranthera limosa, Flood, 1000 g ai/ha; scale 0 to 100; read-out: Plant response rating, Ducksalad
Method in brief: as §2

[16] = system: rice (Oryza sativa); assay: Test B flooded paddy test; details: Oryza sativa, Flood, 1000 g ai/ha; scale 0 to 100; read-out: Plant response rating, Rice
Method in brief: as §2

[17] = system: umbrella sedge (Cyperus difformis); assay: Test B flooded paddy test; details: Cyperus difformis, Flood, 1000 g ai/ha; scale 0 to 100; read-out: Plant response rating, Sedge, Umbrella
Method in brief: as §2

Nc1nc(C2CC2)nc(C(=O)OCc2ccccc2)c1Br [Compound 22, phenylmethyl 6-amino-5-bromo-2-cyclopropyl-4-pyrimidinecarboxylate]
pest or weed control at 125 g/ha ([1]; post-emergence, Postemergence, scale 0 to 100 (0 no effect, 100 complete control), read-out: Surinam Grass plant response rating): 80%
pest or weed control at 500 g/ha ([1]; post-emergence, Postemergence, scale 0 to 100, read-out: Plant response rating, Surinam Grass): 90%
pest or weed control at 125 g/ha ([1]; pre-emergence, Preemergence, scale 0 to 100 (0 no effect, 100 complete control), read-out: Plant response rating, Surinam Grass): 0%
pest or weed control at 500 g/ha ([1]; pre-emergence, Preemergence, scale 0 to 100 (0 no effect, 100 complete control), read-out: Surinam Grass plant response rating): 20%
pest or weed control at 125 g/ha ([2]; post-emergence, Postemergence, scale 0 to 100 (0 no effect, 100 complete control), read-out: Barnyardgrass plant response rating): 70%
pest or weed control at 500 g/ha ([2]; post-emergence, Postemergence, scale 0 to 100, read-out: Plant response rating, Barnyardgrass): 90%
pest or weed control at 125 g/ha ([2]; pre-emergence, Preemergence, scale 0 to 100 (0 no effect, 100 complete control), read-out: Plant response rating, Barnyardgrass): 0%
pest or weed control at 500 g/ha ([2]; pre-emergence, Preemergence, scale 0 to 100 (0 no effect, 100 complete control), read-out: Barnyardgrass plant response rating): 20%
pest or weed control at 125 g/ha ([3]; post-emergence, Postemergence, scale 0 to 100 (0 no effect, 100 complete control), read-out: Cocklebur plant response rating): 100%
pest or weed control at 500 g/ha ([3]; post-emergence, Postemergence, scale 0 to 100, read-out: Plant response rating, Cocklebur): 100%
pest or weed control at 125 g/ha ([3]; pre-emergence, Preemergence, scale 0 to 100 (0 no effect, 100 complete control), read-out: Plant response rating, Cocklebur): 50%
pest or weed control at 500 g/ha ([3]; pre-emergence, Preemergence, scale 0 to 100 (0 no effect, 100 complete control), read-out: Cocklebur plant response rating): 80%
plant injury at 125 g/ha ([4]; post-emergence, Postemergence, 125 g ai/ha, scale 0 to 100 (0 no effect, 100 complete control), read-out: Corn plant response rating): 20%
Corn plant response rating (crop injury, 0 = no effect, 100 = complete kill) at 500 g/ha ([4]; post-emergence, Postemergence, 500 g ai/ha, scale 0 to 100): 80%
Corn plant response rating (crop injury, 0 = no effect, 100 = complete kill) at 125 g/ha ([4]; pre-emergence, Preemergence, 125 g ai/ha, scale 0 to 100 (0 no effect, 100 complete control)): 10%
pest or weed control at 125 g/ha ([5]; post-emergence, Postemergence, scale 0 to 100 (0 no effect, 100 complete control), read-out: Crabgrass plant response rating): 50%
pest or weed control at 500 g/ha ([5]; post-emergence, Postemergence, scale 0 to 100, read-out: Plant response rating, Crabgrass): 90%
pest or weed control at 125 g/ha ([5]; pre-emergence, Preemergence, scale 0 to 100 (0 no effect, 100 complete control), read-out: Plant response rating, Crabgrass): 20%
pest or weed control at 500 g/ha ([5]; pre-emergence, Preemergence, scale 0 to 100 (0 no effect, 100 complete control), read-out: Crabgrass plant response rating): 100%
pest or weed control at 125 g/ha ([6]; post-emergence, Postemergence, scale 0 to 100 (0 no effect, 100 complete control), read-out: Foxtail, Giant plant response rating): 70%
pest or weed control at 500 g/ha ([6]; post-emergence, Postemergence, scale 0 to 100, read-out: Plant response rating, Foxtail, Giant): 80%
pest or weed control at 125 g/ha ([6]; pre-emergence, Preemergence, scale 0 to 100 (0 no effect, 100 complete control), read-out: Plant response rating, Foxtail, Giant): 0%
pest or weed control at 500 g/ha ([6]; pre-emergence, Preemergence, scale 0 to 100 (0 no effect, 100 complete control), read-out: Foxtail, Giant plant response rating): 20%
pest or weed control at 125 g/ha ([7]; post-emergence, Postemergence, scale 0 to 100 (0 no effect, 100 complete control), read-out: Lambsquarters plant response rating): 100%
pest or weed control at 500 g/ha ([7]; post-emergence, Postemergence, scale 0 to 100, read-out: Plant response rating, Lambsquarters): 100%
pest or weed control at 125 g/ha ([7]; pre-emergence, Preemergence, scale 0 to 100 (0 no effect, 100 complete control), read-out: Plant response rating, Lambsquarters): 70%
pest or weed control at 500 g/ha ([7]; pre-emergence, Preemergence, scale 0 to 100 (0 no effect, 100 complete control), read-out: Lambsquarters plant response rating): 100%
pest or weed control at 125 g/ha ([8]; post-emergence, Postemergence, scale 0 to 100 (0 no effect, 100 complete control), read-out: Morningglory plant response rating): 90%
pest or weed control at 500 g/ha ([8]; post-emergence, Postemergence, scale 0 to 100, read-out: Plant response rating, Morningglory): 100%
pest or weed control at 125 g/ha ([8]; pre-emergence, Preemergence, scale 0 to 100 (0 no effect, 100 complete control), read-out: Plant response rating, Morningglory): 100%
pest or weed control at 500 g/ha ([8]; pre-emergence, Preemergence, scale 0 to 100 (0 no effect, 100 complete control), read-out: Morningglory plant response rating): 100%
pest or weed control at 125 g/ha ([9]; post-emergence, Postemergence, scale 0 to 100 (0 no effect, 100 complete control), read-out: Pigweed plant response rating): 100%
pest or weed control at 500 g/ha ([9]; post-emergence, Postemergence, scale 0 to 100, read-out: Plant response rating, Pigweed): 100%
pest or weed control at 125 g/ha ([9]; pre-emergence, Preemergence, scale 0 to 100 (0 no effect, 100 complete control), read-out: Plant response rating, Pigweed): 60%
pest or weed control at 500 g/ha ([9]; pre-emergence, Preemergence, scale 0 to 100 (0 no effect, 100 complete control), read-out: Pigweed plant response rating): 80%
pest or weed control at 125 g/ha ([10]; post-emergence, Postemergence, scale 0 to 100 (0 no effect, 100 complete control), read-out: Velvetleaf plant response rating): 100%
pest or weed control at 500 g/ha ([10]; post-emergence, Postemergence, scale 0 to 100, read-out: Plant response rating, Velvetleaf): 100%
pest or weed control at 125 g/ha ([10]; pre-emergence, Preemergence, scale 0 to 100 (0 no effect, 100 complete control), read-out: Plant response rating, Velvetleaf): 30%
pest or weed control at 500 g/ha ([10]; pre-emergence, Preemergence, scale 0 to 100 (0 no effect, 100 complete control), read-out: Velvetleaf plant response rating): 100%
plant injury at 125 g/ha ([11]; post-emergence, Postemergence, scale 0 to 100 (0 no effect, 100 complete control), read-out: Wheat plant response rating): 0%
plant injury at 500 g/ha ([11]; post-emergence, Postemergence, scale 0 to 100, read-out: Plant response rating, Wheat): 70%
plant injury at 125 g/ha ([11]; pre-emergence, Preemergence, scale 0 to 100 (0 no effect, 100 complete control), read-out: Plant response rating, Wheat): 10%
plant injury at 500 g/ha ([11]; pre-emergence, Preemergence, scale 0 to 100 (0 no effect, 100 complete control), read-out: Wheat plant response rating): 50%
pest or weed control at 125 g/ha ([12]; 125 g ai/ha, scale 0 to 100 (0 no effect, 100 complete control), read-out: Blackgrass plant response rating): 60%
pest or weed control at 500 g/ha ([12]; 500 g ai/ha, scale 0 to 100, read-out: Plant response rating, Blackgrass): 80%
pest or weed control at 125 g/ha ([13]; 125 g ai/ha, scale 0 to 100 (0 no effect, 100 complete control), read-out: Oat, Wild plant response rating): 10%
pest or weed control at 500 g/ha ([13]; 500 g ai/ha, scale 0 to 100, read-out: Plant response rating, Oat, Wild): 60%
pest or weed control at 1000 g/ha [14]: 80%
pest or weed control at 1000 g/ha [15]: 90%
plant injury at 1000 g/ha [16]: 60%
pest or weed control at 1000 g/ha [17]: 50%
